Measurements as given in patent publication US7999119B2, “Compounds having CRTH2 antagonist activity” (Oxagen Limited, priority 2006, dated 2011).
Several values for one entry are separate records, joined by “and”; a condition that tells them apart may be missing. Equal values may be shown once. Read-outs that look alike come from different tables or passages of the source.

Experiments:
[1] = Pharmacokinetics following oral administration in the rat; format: in vivo; conditions: 3 mg/kg; for Fold over IC50 at 24 h: mean blood concentration at 24 h (rat, 3 mg/kg p.o.) divided by whole blood IC50 in ng/ml
Description: Investigation of Pharmacokinetics of Compounds of General Formula (I) Following Oral Administration in the Rat
Rats were weighed on the day of dosing.
The test material was prepared as a 0.3 mg/mL suspension in 1% carboxy-methyl-cellulose (CMC).
Three groups of 3 rats were dosed as follows:
Doses were administered as a single oral dose using a gavage tube at a constant dose volume of 10 mL/kg.
At each sampling time point blood samples (approximately 0.3 mL) was taken from a catheter inserted into a lateral tail vein prior to the start of the experiment. The final blood sample (approximately 2 mL) from each animal was taken by cardiac puncture under isoflurane anaesthesia following which the animal was killed by exsanguination. Blood samples were taken into individual heparinised containers. Blood samples were collected at the following times post-dose:
Following collection, the blood samples were centrifuged (approximately 10,000×g, 2 min at 4° C.) and the plasma stored as one aliquot at approximately −20° C. pending analysis of drug concentrations by LC-MS/MS.
The plasma samples were analysed for test material concentrations at BioDynamics using an LC-MS/MS method developed at BioDynamics.

[2] = tested on: PGD2 induced eosinophil shape change; assay: Human whole blood eosinophil shape change assay; format: cell-based; conditions: Homo sapiens, Eosinophil
Description: Human Whole Blood Eosinophil Shape Change Assay
Compounds 1 to 3 were assayed for their effect on PGD2 induced eosinophil shape change and were compared with Comparator Compounds A to G.
Shape Change Assay in Whole Blood
Compounds (1 μl, 200× final concentration) were added directly to 200 μl whole blood, mixed well and incubated for 15 min, 37° C., 5% CO2. After this time, cell shape was fixed by addition of 300 μl Cytofix™ buffer (BD Biosciences), 15 min on ice. 10 ml RBC lysis buffer was added to the fixed cells, incubated 5 min, at room temperature and centrifuged, 300×g for 5 min. Supernatant (containing lysed red cells) was removed and the lysis step was repeated. Leukocytes were resuspended in 250 μl RPMI/10% FCS and shape change analysed by FACS. Eosinophils were gated out based on their autofluorescence and 2000 eosinophil events were counted per sample. Data were analysed in triplicate.

[3] = tested on: DK-PGD2-induced blood eosinophilia; assay: Inhibition of DK-PGD2-induced blood eosinophilia in rats; format: in vivo, rat; conditions: female rats, oral dosing 30 min before 10 μg DK-PGD2 intracardiac; ED50 from dose-response curve; the values are: ED50
Description: Evaluation of Compounds of General Formula (I) as Inhibitors of 13,14-dihydro-15-keto prostaglandin D2 (DK-PGD2)-Induced Blood Eosinophilia in Rats
The test compound was dissolved in DMSO and diluted with water to give a final dosing volume of 2 ml/kg.
Female rats (175-250 g; UH colony) were dosed orally with test compound (or vehicle).
30 min after dosing all animals were anaesthetised with isoflurane.
Following induction of anaesthesia, animals receive an intracardiac injection of 10 μg DK-PGD2 in 0.3 ml heparinised (10 U/ml) saline. Control animals received an injection of 0.3 ml heparinised saline.
60 min after the intracardiac injection, animals were injected with an overdose of pentobarbitone sodium and a blood sample was taken (into heparin) by cardiac puncture while the rat was anaesthetised but not dead.
An aliquot of blood (100 μl) was added to Turk's solution and the total leukocyte count determined with a haemocytometer.
A further aliquot of blood (500 μl) was mixed with an equal volume of 4% Dextran (mw 500,000) and the erythrocytes allowed to settle. A cytospin preparation was made from the resulting leukocyte rich fraction.
Cytospin preparations were fixed with methanol (5 min) and stained with May-Grunwald (5 min) and Giemsa (15 min) stains. Finally cytospins were washed in phosphate buffer (pH6.8) and air dried.
Differential leukocyte counts were obtained from the cytospin preparations.
Blood eosinophil numbers were determined from the total leukocyte count and the percentage eosinophils (differential count).
Because it was impractical to generate sufficient data in any given experiment, data were obtained over a number of replicate experiments. Data from these replicate experiments were pooled, to provide at least 5 animals in each group and a dose-response curve fitted following a significance test (Mann Whitney) to determine whether or not DK-PGD2 caused a significant increase in blood eosinophils (GraphPad, Prism). A difference between groups was taken to be significant when P<0.05. ED50 values were calculated from the dose-response curve.

[4] = rat, 3 mg/kg p.o, individual male animals

concentration at 0.25 h ([1]; male, rat, plasma, po, rat, 3 mg/kg oral, 0.25 h, mean, read-out: Concentration in Blood, Mean): 0.12 µg/mL
concentration at 0.5 h ([1]; male, rat, plasma, po, rat, 3 mg/kg oral, 0.5 h, individual male animals, read-out: Concentration in Blood): 0.426 µg/mL
concentration at 0.5 h ([1]; male, rat, plasma, po, rat, 3 mg/kg oral, 0.5 h, mean, read-out: Concentration in Blood, Mean): 0.357 µg/mL
concentration at 1 h ([1]; male, rat, plasma, po, rat, 3 mg/kg oral, 1 h, individual male animals, read-out: Concentration in Blood): 0.875 µg/mL
concentration at 1 h ([1]; male, rat, plasma, po, rat, 3 mg/kg oral, 1 h, mean, read-out: Concentration in Blood, Mean): 0.779 µg/mL
concentration at 2 h ([1]; male, rat, plasma, po, rat, 3 mg/kg oral, 2 h, individual male animals, read-out: Concentration in Blood): 1.42 µg/mL
concentration at 2 h ([1]; male, rat, plasma, po, rat, 3 mg/kg oral, 2 h, mean, read-out: Concentration in Blood, Mean): 1.25 µg/mL
concentration at 4 h ([1]; male, rat, plasma, po, rat, 3 mg/kg oral, 4 h, individual male animals, read-out: Concentration in Blood): 0.923 µg/mL
concentration at 4 h ([1]; male, rat, plasma, po, rat, 3 mg/kg oral, 4 h, mean, read-out: Concentration in Blood, Mean): 0.857 µg/mL
concentration at 6 h ([1]; male, rat, plasma, po, rat, 3 mg/kg oral, 6 h, individual male animals, read-out: Concentration in Blood): 0.404 µg/mL
concentration at 6 h ([1]; male, rat, plasma, po, rat, 3 mg/kg oral, 6 h, mean, read-out: Concentration in Blood, Mean): 0.451 µg/mL
concentration at 8 h ([1]; male, rat, plasma, po, rat, 3 mg/kg oral, 8 h, mean, read-out: Concentration in Blood, Mean): 0.354 µg/mL
concentration at 24 h ([1]; male, rat, plasma, po, rat, 3 mg/kg oral, 24 h, mean, read-out: Concentration in Blood, Mean): 0.0437 µg/mL
AUC(0-inf) ([1]; male, rat, plasma, po, rat, 3 mg/kg p.o, individual male animals, read-out: AUCinf): 8.57 µg·h/mL
Cmax ([1]; male, rat, plasma, po, rat, 3 mg/kg p.o, individual male animals, read-out: Cmax): 1.42 µg/mL
Tmax ([1]; male, rat, plasma, po, rat, 3 mg/kg p.o, individual male animals, read-out: Tmax): 2 h
AUC(0-inf) ([1]; male, rat, plasma, po, rat, 3 mg/kg p.o, mean, summary without unit (Table 12), read-out: AUCinf (mean)): 8.16 µg·h/mL
Cmax ([1]; male, rat, plasma, po, rat, 3 mg/kg p.o, mean, summary without unit (Table 12), read-out: Cmax (mean)): 1.25 µg/mL
AUC(0-inf) ([1]; male, rat, plasma, po, rat, 3 mg/kg p.o, mean, read-out: AUCinf, Mean): 8.16 µg·h/mL
Cmax ([1]; male, rat, plasma, po, rat, 3 mg/kg p.o, mean, read-out: Cmax, Mean): 1.25 µg/mL
Tmax ([1]; male, rat, plasma, po, rat, 3 mg/kg p.o, mean, read-out: Tmax, Mean): 2 h
half-life ([1]; male, rat, plasma, po, rat, 3 mg/kg p.o, mean, read-out: T½, Mean (converted)): 4.8 h
Fold over IC50 at 24 h [1]: 1.2
Fold over IC50 at 24 h ([1]; listed as Compound (A)): ca. 1.2
Concentration in Blood ([1]; rat, 3 mg/kg oral, 0.5 h, individual male animals): 0.3884 µg/mL and 0.2563 µg/mL
Concentration in Blood ([1]; rat, 3 mg/kg oral, 1 h, individual male animals): 0.9232 µg/mL and 0.5388 µg/mL
Concentration in Blood ([1]; rat, 3 mg/kg oral, 2 h, individual male animals): 1.309 µg/mL and 1.0136 µg/mL
Concentration in Blood ([1]; rat, 3 mg/kg oral, 4 h, individual male animals): 0.8205 µg/mL and 0.827 µg/mL
Concentration in Blood ([1]; rat, 3 mg/kg oral, 6 h, individual male animals): 0.5148 µg/mL and 0.4326 µg/mL
Concentration in Blood ([1]; rat, 3 mg/kg oral, 24 h, individual male animals): 0.0518 µg/mL and 0.0792 µg/mL and 0 µg/mL
Cmax [1, 4]: 1.309 µg/mL and 1.0136 µg/mL
T½ [1, 4]: 6.1 hours (2×) and 2.2 hours
Cmax (mean) ([1]; rat, 3 mg/kg p.o, mean, summary without unit (Table 12), in ng/mL): 1246
AUCinf (mean) ([1]; rat, 3 mg/kg p.o, mean, summary without unit (Table 12), in ng·h/mL): 8158
IC50 ([2]; 10 nm PGD2-induced eosinophil shape change, human whole blood, read-out: Whole Blood IC50): 0.103 µM
IC50 ([2]; Table 12 summary of whole blood eosinophil shape change IC50, read-out: IC50 (μmol)): 0.103 µM
IC50 ([2]; whole blood eosinophil shape change IC50 converted to ng/mL, read-out: IC50): 0.0358 mg/L
SMILES: Cc1c(Cc2ccc3ccccc3n2)c2cc(F)ccc2n1CC(=O)O [Compound A, (5-Fluoro-2-methyl-3-quinolin-2-ylmethyl-indol-1-yl)-acetic acid, reference compound]
Concentration in Blood ([1]; rat, 3 mg/kg oral, 0.25 h, individual male animals): 0.1391 µg/mL and 0.1539 µg/mL and 0.0683 µg/mL
Concentration in Blood ([1]; rat, 3 mg/kg oral, 8 h, individual male animals): 0.3056 µg/mL and 0.5219 µg/mL and 0.2355 µg/mL
AUCinf [1, 4]: 10.4292 µg·h/mL and 5.4739 µg·h/mL
Potency in inhibition of DK-PGD2-induced blood eosinophilia [3]: 37 mg/kg
